Assay results published in the kinase profiling compilation of Christmann-Franck et al. (2016).

Assays:
Assay in all cases: radiometric filter-binding kinase assay, Kinase HotSpot
Details in all cases: compound 0.5 µM; ATP 10 µM
OXSR1 (human) = OXSR1 (human) (UniProt O95747)
DYRK1B (human) = DYRK1B (human) (UniProt Q9Y463)
DMPK (human) = DMPK (human) (UniProt Q09013)
EPHB1 (human) = EPHB1 (human) (UniProt P54762)
PDGFRB (human) = PDGFRB (human) (UniProt P09619)
ADRBK1 (human) = ADRBK1 (human) (UniProt P25098)
PRKD3 (human) = PRKD3 (human) (UniProt O94806)
ABL2 (human) = ABL2 (human) (UniProt P42684)
CDK5 CDK5R1 p25 (human) = CDK5 CDK5R1 p25 (human) (UniProt Q00535+Q15078)
YES1 (human) = YES1 (human) (UniProt P07947)
INSR (human) = INSR (human) (UniProt P06213)
PRKD2 (human) = PRKD2 (human) (UniProt Q9BZL6)
CSNK1G3 (human) = CSNK1G3 (human) (UniProt Q9Y6M4)
BRSK1 (human) = BRSK1 (human) (UniProt Q8TDC3)
AURKA (human) = AURKA (human) (UniProt O14965)
STK16 (human) = STK16 (human) (UniProt O75716)
FER (human) = FER (human) (UniProt P16591)
SGK3 (human) = SGK3 (human) (UniProt Q96BR1)
EPHA7 (human) = EPHA7 (human) (UniProt Q15375)
MAP3K9 (human) = MAP3K9 (human) (UniProt P80192)
PKN2 (human) = PKN2 (human) (UniProt Q16513)
CLK1 (human) = CLK1 (human) (UniProt P49759)
IKBKB (human) = IKBKB (human) (UniProt O14920)
[1] = system: MKNK1 (human), Q9BUB5 [T385D; 165-205 del]
SRPK3 (human) = SRPK3 (human) (UniProt Q9UPE1)
MAPK1 (human) = MAPK1 (human) (UniProt P28482)
STK4 (human) = STK4 (human) (UniProt Q13043)
ACVR1 (human) = ACVR1 (human) (UniProt Q04771)
HIPK3 (human) = HIPK3 (human) (UniProt Q9H422)
MAPK11 (human) = MAPK11 (human) (UniProt Q15759)
SIK2 (human) = SIK2 (human) (UniProt Q9H0K1)
NEK3 (human) = NEK3 (human) (UniProt P51956)
MARK4 (human) = MARK4 (human) (UniProt Q96L34)
STK17A (human) = STK17A (human) (UniProt Q9UEE5)
BMX (human) = BMX (human) (UniProt P51813)
NEK11 (human) = NEK11 (human) (UniProt Q8NG66)
MYLK2 (human) = MYLK2 (human) (UniProt Q9H1R3)
CDK9 CCNK (human) = CDK9 CCNK (human) (UniProt O75909+P50750)
DCLK2 (human) = DCLK2 (human) (UniProt Q8N568)
EPHB3 (human) = EPHB3 (human) (UniProt P54753)
MET (human) = MET (human) (UniProt P08581)
CDK5 CDK5R1 p35 (human) = CDK5 CDK5R1 p35 (human) (UniProt Q00535+Q15078)

Sequence of FER (human) (P16591 whole entry, looked up): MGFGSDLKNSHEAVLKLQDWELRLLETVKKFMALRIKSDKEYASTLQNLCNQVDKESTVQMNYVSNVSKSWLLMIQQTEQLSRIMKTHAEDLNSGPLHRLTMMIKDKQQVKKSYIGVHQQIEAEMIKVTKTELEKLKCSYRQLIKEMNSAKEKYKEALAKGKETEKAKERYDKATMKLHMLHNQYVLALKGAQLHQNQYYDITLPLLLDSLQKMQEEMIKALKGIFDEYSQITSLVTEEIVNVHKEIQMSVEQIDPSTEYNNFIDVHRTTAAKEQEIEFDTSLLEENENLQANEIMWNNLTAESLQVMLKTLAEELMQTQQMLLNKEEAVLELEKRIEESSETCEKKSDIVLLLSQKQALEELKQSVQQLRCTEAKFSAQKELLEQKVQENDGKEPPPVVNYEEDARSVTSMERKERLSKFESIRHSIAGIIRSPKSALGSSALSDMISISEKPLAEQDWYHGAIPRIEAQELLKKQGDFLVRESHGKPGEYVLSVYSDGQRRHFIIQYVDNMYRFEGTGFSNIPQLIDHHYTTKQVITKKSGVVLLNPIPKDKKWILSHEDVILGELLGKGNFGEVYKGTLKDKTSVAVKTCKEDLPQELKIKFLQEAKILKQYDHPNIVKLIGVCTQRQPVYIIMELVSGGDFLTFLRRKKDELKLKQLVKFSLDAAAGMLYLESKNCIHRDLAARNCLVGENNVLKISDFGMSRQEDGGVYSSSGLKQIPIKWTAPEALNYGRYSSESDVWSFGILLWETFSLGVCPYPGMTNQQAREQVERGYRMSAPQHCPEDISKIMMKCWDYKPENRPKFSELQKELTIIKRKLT
Sequence of ABL2 (human) (P42684 whole entry, looked up): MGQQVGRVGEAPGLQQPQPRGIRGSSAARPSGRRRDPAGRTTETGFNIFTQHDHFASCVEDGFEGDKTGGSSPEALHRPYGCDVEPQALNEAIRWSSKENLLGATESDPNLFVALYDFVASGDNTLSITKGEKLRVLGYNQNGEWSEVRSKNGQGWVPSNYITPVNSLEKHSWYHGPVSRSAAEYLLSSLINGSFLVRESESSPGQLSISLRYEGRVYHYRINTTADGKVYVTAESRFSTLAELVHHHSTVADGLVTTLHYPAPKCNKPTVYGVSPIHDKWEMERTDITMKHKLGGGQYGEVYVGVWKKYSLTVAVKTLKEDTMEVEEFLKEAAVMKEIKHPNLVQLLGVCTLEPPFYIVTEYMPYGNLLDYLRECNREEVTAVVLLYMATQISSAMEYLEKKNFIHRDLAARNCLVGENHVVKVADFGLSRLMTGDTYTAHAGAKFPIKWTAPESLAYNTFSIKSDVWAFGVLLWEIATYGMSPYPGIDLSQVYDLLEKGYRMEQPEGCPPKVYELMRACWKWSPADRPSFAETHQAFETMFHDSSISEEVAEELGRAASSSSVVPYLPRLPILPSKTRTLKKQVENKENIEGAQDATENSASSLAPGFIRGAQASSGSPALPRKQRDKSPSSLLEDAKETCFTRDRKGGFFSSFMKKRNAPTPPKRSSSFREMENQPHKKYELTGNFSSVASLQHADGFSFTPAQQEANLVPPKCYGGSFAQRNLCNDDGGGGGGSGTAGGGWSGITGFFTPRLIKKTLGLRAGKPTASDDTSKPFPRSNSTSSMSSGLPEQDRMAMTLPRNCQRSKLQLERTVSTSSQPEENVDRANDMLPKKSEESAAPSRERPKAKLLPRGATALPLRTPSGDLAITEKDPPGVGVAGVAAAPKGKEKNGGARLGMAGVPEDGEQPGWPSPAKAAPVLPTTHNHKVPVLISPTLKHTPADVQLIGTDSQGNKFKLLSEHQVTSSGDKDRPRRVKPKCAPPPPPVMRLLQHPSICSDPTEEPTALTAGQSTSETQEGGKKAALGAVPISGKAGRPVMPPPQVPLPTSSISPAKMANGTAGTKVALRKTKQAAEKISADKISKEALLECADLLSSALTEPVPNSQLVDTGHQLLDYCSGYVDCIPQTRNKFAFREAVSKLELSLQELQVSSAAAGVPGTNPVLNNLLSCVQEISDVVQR
Sequence of MYLK2 (human) (Q9H1R3 whole entry, looked up): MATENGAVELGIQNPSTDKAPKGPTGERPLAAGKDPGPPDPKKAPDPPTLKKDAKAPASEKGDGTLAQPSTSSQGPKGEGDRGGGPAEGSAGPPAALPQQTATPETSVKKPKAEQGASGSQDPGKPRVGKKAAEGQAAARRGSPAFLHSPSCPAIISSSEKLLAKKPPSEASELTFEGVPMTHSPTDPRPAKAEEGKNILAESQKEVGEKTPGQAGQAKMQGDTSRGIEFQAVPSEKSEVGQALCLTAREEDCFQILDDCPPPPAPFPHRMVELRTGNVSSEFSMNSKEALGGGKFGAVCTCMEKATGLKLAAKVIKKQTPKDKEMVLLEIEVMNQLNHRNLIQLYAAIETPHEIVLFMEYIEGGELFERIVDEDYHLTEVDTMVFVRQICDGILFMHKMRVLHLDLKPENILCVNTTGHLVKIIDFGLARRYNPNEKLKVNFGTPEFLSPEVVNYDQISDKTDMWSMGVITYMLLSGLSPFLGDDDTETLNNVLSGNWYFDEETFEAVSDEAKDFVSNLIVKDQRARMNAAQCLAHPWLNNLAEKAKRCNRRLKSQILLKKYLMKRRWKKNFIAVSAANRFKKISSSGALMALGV
Sequence of PRKD3 (human) (O94806 whole entry, looked up): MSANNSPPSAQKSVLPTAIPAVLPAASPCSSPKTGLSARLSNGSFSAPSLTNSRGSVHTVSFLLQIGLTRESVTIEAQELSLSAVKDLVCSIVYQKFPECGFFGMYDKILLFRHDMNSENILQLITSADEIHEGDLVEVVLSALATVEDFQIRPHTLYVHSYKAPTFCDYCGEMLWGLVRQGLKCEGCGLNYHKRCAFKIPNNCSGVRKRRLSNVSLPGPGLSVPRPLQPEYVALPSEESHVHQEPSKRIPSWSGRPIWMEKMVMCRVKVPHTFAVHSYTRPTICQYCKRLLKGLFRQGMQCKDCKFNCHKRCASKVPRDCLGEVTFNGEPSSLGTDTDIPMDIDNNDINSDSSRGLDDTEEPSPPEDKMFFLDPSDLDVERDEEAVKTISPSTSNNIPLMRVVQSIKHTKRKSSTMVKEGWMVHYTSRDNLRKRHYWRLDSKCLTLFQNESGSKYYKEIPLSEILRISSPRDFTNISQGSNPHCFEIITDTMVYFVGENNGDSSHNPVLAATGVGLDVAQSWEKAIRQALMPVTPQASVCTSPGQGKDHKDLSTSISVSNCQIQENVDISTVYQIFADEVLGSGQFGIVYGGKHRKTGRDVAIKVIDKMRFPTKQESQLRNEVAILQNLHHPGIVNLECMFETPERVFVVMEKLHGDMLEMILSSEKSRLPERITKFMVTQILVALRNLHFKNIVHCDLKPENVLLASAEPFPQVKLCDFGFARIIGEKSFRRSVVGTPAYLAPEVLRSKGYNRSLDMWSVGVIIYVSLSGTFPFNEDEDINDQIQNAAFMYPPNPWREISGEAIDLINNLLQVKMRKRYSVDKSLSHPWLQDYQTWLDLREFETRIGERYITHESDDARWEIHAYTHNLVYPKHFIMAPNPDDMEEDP
Sequence of STK17A (human) (Q9UEE5 whole entry, looked up): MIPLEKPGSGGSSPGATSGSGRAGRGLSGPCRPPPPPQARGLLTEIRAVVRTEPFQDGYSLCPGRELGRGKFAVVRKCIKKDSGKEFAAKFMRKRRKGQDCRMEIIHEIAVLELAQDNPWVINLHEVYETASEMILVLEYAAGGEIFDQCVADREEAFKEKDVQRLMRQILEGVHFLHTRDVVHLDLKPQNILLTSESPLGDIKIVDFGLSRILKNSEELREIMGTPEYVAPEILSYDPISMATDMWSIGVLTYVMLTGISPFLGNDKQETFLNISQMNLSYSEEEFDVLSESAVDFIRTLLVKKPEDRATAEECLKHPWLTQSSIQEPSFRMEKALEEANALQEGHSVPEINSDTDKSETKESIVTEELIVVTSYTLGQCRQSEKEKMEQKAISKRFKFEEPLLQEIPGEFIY
Sequence of MKNK1 (human), Q9BUB5 [T385D; 165-205 del] (Q9BUB5 whole entry, looked up, stated change not applied): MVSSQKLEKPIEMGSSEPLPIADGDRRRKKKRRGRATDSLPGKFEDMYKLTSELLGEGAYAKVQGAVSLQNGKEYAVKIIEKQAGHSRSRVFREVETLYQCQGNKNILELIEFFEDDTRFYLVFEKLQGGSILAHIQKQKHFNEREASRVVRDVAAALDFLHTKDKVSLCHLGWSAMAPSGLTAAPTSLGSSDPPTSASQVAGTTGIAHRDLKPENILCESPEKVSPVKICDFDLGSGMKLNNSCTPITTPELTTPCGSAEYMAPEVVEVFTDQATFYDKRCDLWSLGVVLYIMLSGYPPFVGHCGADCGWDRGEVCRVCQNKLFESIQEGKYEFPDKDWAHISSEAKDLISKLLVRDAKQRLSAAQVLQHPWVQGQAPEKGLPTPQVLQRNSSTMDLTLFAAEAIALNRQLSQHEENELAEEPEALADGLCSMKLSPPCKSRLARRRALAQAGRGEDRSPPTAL
Sequence of DYRK1B (human) (Q9Y463 whole entry, looked up): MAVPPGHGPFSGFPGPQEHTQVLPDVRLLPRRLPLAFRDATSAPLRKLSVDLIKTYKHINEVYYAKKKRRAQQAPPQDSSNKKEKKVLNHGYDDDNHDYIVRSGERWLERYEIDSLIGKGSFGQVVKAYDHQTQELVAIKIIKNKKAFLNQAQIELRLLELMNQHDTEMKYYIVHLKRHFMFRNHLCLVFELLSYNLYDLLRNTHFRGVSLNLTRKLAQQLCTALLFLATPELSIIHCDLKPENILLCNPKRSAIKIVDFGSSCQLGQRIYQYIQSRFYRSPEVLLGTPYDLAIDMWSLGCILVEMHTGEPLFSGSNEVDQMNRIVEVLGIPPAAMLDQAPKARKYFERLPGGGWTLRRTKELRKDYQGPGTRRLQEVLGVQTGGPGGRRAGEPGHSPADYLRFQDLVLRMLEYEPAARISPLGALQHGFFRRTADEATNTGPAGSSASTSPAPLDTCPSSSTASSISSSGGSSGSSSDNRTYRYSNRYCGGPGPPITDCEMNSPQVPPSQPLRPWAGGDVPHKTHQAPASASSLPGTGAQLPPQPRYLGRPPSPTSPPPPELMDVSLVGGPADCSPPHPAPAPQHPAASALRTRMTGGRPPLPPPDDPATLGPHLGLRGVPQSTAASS

Compound O=C1Nc2ccc(Br)cc2/C1=C\c1cc2c([nH]1)CCCC2 has a residual activity (OXSR1 (human)) of 96.7%, a residual activity (DYRK1B (human)) of 93.9% and a residual activity (DMPK (human)) of 101%. For the same compound, the residual activity (EPHB1 (human)) was 85.5%, the residual activity (PDGFRB (human)) was 58.8% and the residual activity (ADRBK1 (human)) was 105%. It also gave a residual activity (PRKD3 (human)) of 90.3%, a residual activity (ABL2 (human)) of 82.6% and a residual activity (CDK5 CDK5R1 p25 (human)) of 91.3%. It also gave a residual activity (YES1 (human)) of 67.2%, a residual activity (INSR (human)) of 85.8% and a residual activity (PRKD2 (human)) of 95.8%. For the same compound, the residual activity (CSNK1G3 (human)) was 103%, the residual activity (BRSK1 (human)) was 80.8% and the residual activity (AURKA (human)) was 87.5%. The residual activity (STK16 (human)) was 94.3%, the residual activity (FER (human)) was 74.7% and the residual activity (SGK3 (human)) was 97.6%. The residual activity (EPHA7 (human)) was 85.3%, the residual activity (MAP3K9 (human)) was 53.4% and the residual activity (PKN2 (human)) was 91.3%. It also gave a residual activity (CLK1 (human)) of 97.2%, a residual activity (IKBKB (human)) of 102% and a residual activity [1] of 106%. It also gave a residual activity (SRPK3 (human)) of 77.8%, a residual activity (MAPK1 (human)) of 103% and a residual activity (STK4 (human)) of 44.1%. It also gave a residual activity (ACVR1 (human)) of 97%, a residual activity (HIPK3 (human)) of 96.7% and a residual activity (MAPK11 (human)) of 96.8%. The residual activity (SIK2 (human)) was 92.7%, the residual activity (NEK3 (human)) was 86.7% and the residual activity (MARK4 (human)) was 82.9%. It also gave a residual activity (STK17A (human)) of 72.9%, a residual activity (BMX (human)) of 89.9% and a residual activity (NEK11 (human)) of 111%. It also gave a residual activity (MYLK2 (human)) of 78.2%, a residual activity (CDK9 CCNK (human)) of 96.7% and a residual activity (DCLK2 (human)) of 98.2%. For the same compound, the residual activity (EPHB3 (human)) was 99.7%, the residual activity (MET (human)) was 81.6% and the residual activity (CDK5 CDK5R1 p35 (human)) was 84.6%.

O=C1C(Cl)=C(N2C(=O)CCC2=O)C(=O)c2ccccc21 showed a residual activity (OXSR1 (human)) of 108%, a residual activity (DYRK1B (human)) of 103% and a residual activity (DMPK (human)) of 98.5%. The residual activity (EPHB1 (human)) was 97.2%, the residual activity (PDGFRB (human)) was 103% and the residual activity (ADRBK1 (human)) was 105%. For the same compound, the residual activity (PRKD3 (human)) was 88.2%, the residual activity (ABL2 (human)) was 106% and the residual activity (CDK5 CDK5R1 p25 (human)) was 87.3%. For the same compound, the residual activity (YES1 (human)) was 103%, the residual activity (INSR (human)) was 105% and the residual activity (PRKD2 (human)) was 95.7%. For the same compound, the residual activity (CSNK1G3 (human)) was 93.5%, the residual activity (BRSK1 (human)) was 96.9% and the residual activity (AURKA (human)) was 105%. The residual activity (STK16 (human)) was 100%, the residual activity (FER (human)) was 103% and the residual activity (SGK3 (human)) was 103%. It also gave a residual activity (EPHA7 (human)) of 106%, a residual activity (MAP3K9 (human)) of 106% and a residual activity (PKN2 (human)) of 108%. For the same compound, the residual activity (CLK1 (human)) was 103%, the residual activity (IKBKB (human)) was 101% and the residual activity [1] was 135%. The residual activity (SRPK3 (human)) was 93.6%, the residual activity (MAPK1 (human)) was 73.6% and the residual activity (STK4 (human)) was 89.1%. For the same compound, the residual activity (ACVR1 (human)) was 96.9%, the residual activity (HIPK3 (human)) was 112% and the residual activity (MAPK11 (human)) was 105%. It also gave a residual activity (SIK2 (human)) of 92.8%, a residual activity (NEK3 (human)) of 102% and a residual activity (MARK4 (human)) of 99.6%. The residual activity (STK17A (human)) was 101%, the residual activity (BMX (human)) was 103% and the residual activity (NEK11 (human)) was 101%. The residual activity (MYLK2 (human)) was 98.1%, the residual activity (CDK9 CCNK (human)) was 97.2% and the residual activity (DCLK2 (human)) was 100%. It also gave a residual activity (EPHB3 (human)) of 97%, a residual activity (MET (human)) of 109% and a residual activity (CDK5 CDK5R1 p35 (human)) of 93.7%.

With COc1ccc(S(=O)(=O)N(CCO)c2ccccc2CN(C)C/C=C/c2ccc(Cl)cc2)cc1 the residual activity (OXSR1 (human)) was 106%, the residual activity (DYRK1B (human)) was 104% and the residual activity (DMPK (human)) was 105%. For the same compound, the residual activity (EPHB1 (human)) was 93.3%, the residual activity (PDGFRB (human)) was 104% and the residual activity (ADRBK1 (human)) was 97.9%. It also gave a residual activity (PRKD3 (human)) of 97.1%, a residual activity (ABL2 (human)) of 97.4% and a residual activity (CDK5 CDK5R1 p25 (human)) of 97.7%. The residual activity (YES1 (human)) was 103%, the residual activity (INSR (human)) was 103% and the residual activity (PRKD2 (human)) was 99.8%. It also gave a residual activity (CSNK1G3 (human)) of 98.3%, a residual activity (BRSK1 (human)) of 98.4% and a residual activity (AURKA (human)) of 97.5%. It also gave a residual activity (STK16 (human)) of 102%, a residual activity (FER (human)) of 97.1% and a residual activity (SGK3 (human)) of 106%. For the same compound, the residual activity (EPHA7 (human)) was 98.9%, the residual activity (MAP3K9 (human)) was 102% and the residual activity (PKN2 (human)) was 101%. For the same compound, the residual activity (CLK1 (human)) was 96.4%, the residual activity (IKBKB (human)) was 98.1% and the residual activity [1] was 103%. For the same compound, the residual activity (SRPK3 (human)) was 97.3%, the residual activity (MAPK1 (human)) was 97% and the residual activity (STK4 (human)) was 94.2%. For the same compound, the residual activity (ACVR1 (human)) was 90.6%, the residual activity (HIPK3 (human)) was 104% and the residual activity (MAPK11 (human)) was 103%. It also gave a residual activity (SIK2 (human)) of 97.4%, a residual activity (NEK3 (human)) of 96.2% and a residual activity (MARK4 (human)) of 102%. The residual activity (STK17A (human)) was 102%, the residual activity (BMX (human)) was 101% and the residual activity (NEK11 (human)) was 105%. The residual activity (MYLK2 (human)) was 97.8%, the residual activity (CDK9 CCNK (human)) was 99.1% and the residual activity (DCLK2 (human)) was 99.1%. The residual activity (EPHB3 (human)) was 92.8%, the residual activity (MET (human)) was 98.2% and the residual activity (CDK5 CDK5R1 p35 (human)) was 99.9%.

In the case of Cn1c2ccccc2c2c3c(c4c5ccccc5n(CCC#N)c4c21)CNC3=O, the residual activity (OXSR1 (human)) is reported as 102%, the residual activity (DYRK1B (human)) is reported as 25.6% and the residual activity (DMPK (human)) is reported as 101%. The residual activity (EPHB1 (human)) was 95%, the residual activity (PDGFRB (human)) was 60.6% and the residual activity (ADRBK1 (human)) was 103%. The residual activity (PRKD3 (human)) was 7.3%, the residual activity (ABL2 (human)) was 42.3% and the residual activity (CDK5 CDK5R1 p25 (human)) was 21.3%. It also gave a residual activity (YES1 (human)) of 68.7%, a residual activity (INSR (human)) of 89.3% and a residual activity (PRKD2 (human)) of 18.7%. The residual activity (CSNK1G3 (human)) was 137%, the residual activity (BRSK1 (human)) was 20.2% and the residual activity (AURKA (human)) was 56.8%. It also gave a residual activity (STK16 (human)) of 81.1%, a residual activity (FER (human)) of 5.9% and a residual activity (SGK3 (human)) of 112%. For the same compound, the residual activity (EPHA7 (human)) was 62.6%, the residual activity (MAP3K9 (human)) was 1.49% and the residual activity (PKN2 (human)) was 67.7%. It also gave a residual activity (CLK1 (human)) of 69.9%, a residual activity (IKBKB (human)) of 90.4% and a residual activity [1] of 75.2%. It also gave a residual activity (SRPK3 (human)) of 92.8%, a residual activity (MAPK1 (human)) of 104% and a residual activity (STK4 (human)) of 3.73%. It also gave a residual activity (ACVR1 (human)) of 155%, a residual activity (HIPK3 (human)) of 29.8% and a residual activity (MAPK11 (human)) of 99.5%. The residual activity (SIK2 (human)) was 54.5%, the residual activity (NEK3 (human)) was 133% and the residual activity (MARK4 (human)) was 10.8%. The residual activity (STK17A (human)) was 85.3%, the residual activity (BMX (human)) was 13.7% and the residual activity (NEK11 (human)) was 110%. It also gave a residual activity (MYLK2 (human)) of 59.6%, a residual activity (CDK9 CCNK (human)) of 55.2% and a residual activity (DCLK2 (human)) of 84.7%. It also gave a residual activity (EPHB3 (human)) of 87.2%, a residual activity (MET (human)) of 100% and a residual activity (CDK5 CDK5R1 p35 (human)) of 8.52%.
